# US20100137346A1, “DESFE[…] ACTINIDE DEC[…]” (priority 2006, published 2010)
# Where two headings read alike, the source gives them in different places.
# Columns and labels:
# [1] = cited from earlier work; for relative percentages of the iron excreted in the stool and urine / Iron Clearing Efficiency (%): orally to C. apella primates, 150 μmol/kg, data from ref 19 / ref 17
# [2] = Chelator-induced uranium excretion (urine + bile, 24 h) in bile duct-cannulated rat model; format: in vivo
# Procedure: Desferrithiocin Analogue Induced Excretion of Uranium. In order to compare results with previous chelator-induced iron excretion data, the uranium clearance studies were carried out in a bile duct-cannulated rat model. The animals were given uranyl acetate dihydrate SC at a dose of 5 mg/kg (the actual dose of uranium is 2.8 mg/kg). Bile and urine samples were collected for 24 hours after dosing. Kidneys were removed from selected animals and tissue uranium concentration measured. At least three animals were utilized in each experimental group. Data from two separate control studies (uranyl acetate/ no chelator) have now been combined for a total of 14 control animals. All uranium concentrations were measured using ICPMS. The data are reported as the total quantity of uranium excreted [urine +bile]; the mode of excretion [urine/bile] is also given. In addition the percentage of the administered dose of uranium cleared and chelator-induced uranium excretion vs the controls is also given. Four positive controls were evaluated: DTPA (13, Table 1) given as its trisodium calcium salt, DFO (14), N,N′-bis(2hydroxybenzyl)ethylenediamine-N,N′-diacetic acid, monosodium salt (NaHBED, 15) and the hydroxypyridone CP94 (16) shown to bind uranium [Pashalidis, et al., Effective complex formation in the interaction of 1,2-dimethyl-3-hydroxypyrid-4-one (Deferiprone or L1) with uranium(VI), Journal of Radioanalytical and Nuclear Chemistry 1999; 242:181-184.] The total metal cleared after 24 h in control rats was 10% of the administered dose. When DTPA, 13, was given IP or PO at 300 μmol/kg immediately after uranium, the excretion was 17% and 8% of the administered dose respectively (p>0.05). However, when the drug was given IP at a dose of 600 μmol/kg immediately post-metal, the uranium excretion was significant, 20% (p<0.005). This is consistent with previously published data using a similar animal model.[Domingo, et al., Comparative effects of the chelators sodium 4,5-dihydroxybenzene-1,3-disulfonate (Tiron) and diethylenetriaminepentaacetic acid (DTPA) on acute uranium nephrotoxicity in rats, Toxicology 1997; 118:49-59] DFO (14) and CP94 (16) given IP immediately post uranyl acetate were ineffective.
# Desferrithiocin Analogue-Induced Excretion of Uranium. In order to compare results with previous chelator-induced iron excretion data, the uranium clearance studies were carried out in a bile duct-cannulated rat model. The animals were given uranyl acetate dihydrate SC at a dose of 5 mg/kg (the actual dose of uranium is 2.8 mg/kg). Bile and urine samples were collected for 24 hours after dosing. Kidneys were removed from selected animals and tissue uranium concentration measured. At least three animals were utilized in each experimental group. Data from two separate control studies (uranyl acetate/ no chelator) are combined for a total of 14 control animals. All uranium concentrations were measured using ICPMS. The data are reported as the total quantity of uranium excreted [urine +bile]; the mode of excretion [urine/bile] is also given. In addition the percentage of the administered dose of uranium cleared and chelator-induced uranium excretion vs the controls is also given. Four positive controls were evaluated: DTPA (1, Table 1) given as its trisodium calcium salt, DFO (2), N,N -bis(2-hydroxybenzyl)ethylenediamine-N,N-diacetic acid, monosodium salt (NaHBED, 3) and the hydroxypyridone CP94 (4) shown to bind uranium. The total metal cleared after 24 h in control rats was 10% of the administered dose. When DTPA, 1, was given IP or PO at 300 μmol/kg immediately after uranium, the excretion was 17% and 8% of the administered dose respectively (p>0.05). However, when the drug was given IP at a dose of 600 μmol/kg immediately post metal, the uranium excretion was significant, 20% (p<0.005). This is consistent with previously published data using a similar animal model.^2 DFO (2) and CP94 (4) given IP immediately post uranyl acetate were ineffective.
# [3] = Rattus norvegicus, ip, 24 h, 300 μmol/kg IP Immediate, read-out: Chelator-Induced U Excretion/Control
compound,measurement,setting,value
"O=C(O)[C@H]1CSC(c2ncccc2O)=N1 [Compound 2, (S)-4,5-dihydro-2-(3-hydroxy-2-pyridinyl)-4-thiazolecarboxylic acid]",ICE,[1]; iron-overloaded C. apella primate,4.8%
O=C([O-])CN(CCN(CC(=O)O)Cc1ccccc1O)Cc1ccccc1O.[Na+] [drawing 6],% of Administered Dose Cleared,[2]; 150 μmol/kg IP Immediate,17%
same,Uranium Excretion,[2]; 150 μmol/kg IP Immediate,483 ± 119 µg/kg
same,Uranium Excretion [urine/bite],[2]; 150 μmol/kg IP Immediate,97/3
same,response vs control in vivo at 150 µmol/kg,"[2]; Rattus norvegicus, ip, 24 h, 150 μmol/kg IP Immediate, read-out: Chelator-Induced U Excretion/Control",170%
CCC1=C(O)C(=O)CCN1CC [drawing 7],% of Administered Dose Cleared,[2]; 450 μmol/kg IP Immediate,11%
same,Uranium Excretion,[2]; 450 μmol/kg IP Immediate,302 ± 171 µg/kg
same,Uranium Excretion [urine/bite],[2]; 450 μmol/kg IP Immediate,100/0
same,response vs control in vivo at 450 µmol/kg,"[2]; Rattus norvegicus, ip, 24 h, 450 μmol/kg IP Immediate, read-out: Chelator-Induced U Excretion/Control",110%
COc1ccc(C2=N[C@@](C)(C(=O)O)CS2)c(O)c1 [drawing 8],% of Administered Dose Cleared,[2]; 300 μmol/kg IP 0.5 h Post,15%
same,Chelator-Induced U Excretion/Control,[2]; 300 μmol/kg IP 0.5 h Post,1.5
same,Uranium Excretion,[2]; 300 μmol/kg IP 0.5 h Post,413 ± 148 µg/kg
same,Uranium Excretion [urine/bite],[2]; 300 μmol/kg IP 0.5 h Post,[37/63]
same,Chelator-Induced U Excretion/Control,[2]; 300 μmol/kg IP Immediate,2.0
same,Uranium Excretion,[2]; 300 μmol/kg IP Immediate,568 ± 133 µg/kg
same,Uranium Excretion [urine/bite],[2]; 300 μmol/kg IP Immediate,59/41
CC1(C)SC(c2ccccc2O)=N[C@@H]1C(=O)O [drawing 9],% of Administered Dose Cleared,[2]; 300 μmol/kg IP 0.5 h Post,7%
same,Uranium Excretion,[2]; 300 μmol/kg IP 0.5 h Post,200 ± 47 µg/kg
same,Uranium Excretion [urine/bite],[2]; 300 μmol/kg IP 0.5 h Post,[37/63]
same,% of Administered Dose Cleared,[2]; 300 μmol/kg IP Immediate,26%
same,Uranium Excretion,[2]; 300 μmol/kg IP Immediate,743 ± 189 µg/kg
same,Uranium Excretion [urine/bite],[2]; 300 μmol/kg IP Immediate,8/92
same,response vs control in vivo at 300 µmol/kg,"[2]; Rattus norvegicus, ip, 24 h, 300 μmol/kg IP 0.5 h Post, read-out: Chelator-Induced U Excretion/Control",70%
same,response vs control in vivo at 300 µmol/kg,[2]; [3],260%
C[C@@]1(C(=O)O)CSC(c2ccc(O)cc2O)=N1 [drawing 10],% of Administered Dose Cleared,[2]; 300 μmol/kg IP Immediate,19%
same,Uranium Excretion,[2]; 300 μmol/kg IP Immediate,523 ± 180 µg/kg
same,Uranium Excretion [urine/bite],[2]; 300 μmol/kg IP Immediate,92/8
same,response vs control in vivo at 300 µmol/kg,[2]; [3],190%
COc1ccc(C2=N[C@@H](C(=O)O)CS2)c(O)c1 [drawing 12],% of Administered Dose Cleared,[2]; 300 μmol/kg IP 0.5 h Post,33%
same,Chelator-Induced U Excretion/Control,[2]; 300 μmol/kg IP 0.5 h Post,3.3
same,Uranium Excretion,[2]; 300 μmol/kg IP 0.5 h Post,917 ± 177 µg/kg
same,Uranium Excretion [urine/bite],[2]; 300 μmol/kg IP 0.5 h Post,[16/84]
same,% of Administered Dose Cleared,[2]; 300 μmol/kg IP 0.5 h Pre,29%
same,Chelator-Induced U Excretion/Control,[2]; 300 μmol/kg IP 0.5 h Pre,2.9
same,Uranium Excretion,[2]; 300 μmol/kg IP 0.5 h Pre,815 ± 211 µg/kg
same,Uranium Excretion [urine/bite],[2]; 300 μmol/kg IP 0.5 h Pre,48/52
same,% of Administered Dose Cleared,[2]; 300 μmol/kg IP 2 h Post,30%
same,Chelator-Induced U Excretion/Control,[2]; 300 μmol/kg IP 2 h Post,3.0
same,Uranium Excretion,[2]; 300 μmol/kg IP 2 h Post,847 ± 335 µg/kg
same,Uranium Excretion [urine/bite],[2]; 300 μmol/kg IP 2 h Post,[46/54]
same,% of Administered Dose Cleared,[2]; 300 μmol/kg IP 4 h Post,16%
same,Chelator-Induced U Excretion/Control,[2]; 300 μmol/kg IP 4 h Post,1.6
same,Uranium Excretion,[2]; 300 μmol/kg IP 4 h Post,444 ± 119 µg/kg
same,Uranium Excretion [urine/bite],[2]; 300 μmol/kg IP 4 h Post,[66/34]
same,% of Administered Dose Cleared,[2]; 300 μmol/kg IP Immediate,30%
same,Chelator-Induced U Excretion/Control,[2]; 300 μmol/kg IP Immediate,3.0
same,Uranium Excretion,[2]; 300 μmol/kg IP Immediate,838 ± 166 µg/kg
same,Uranium Excretion [urine/bite],[2]; 300 μmol/kg IP Immediate,[64/36]
same,% of Administered Dose Cleared,[2]; 300 μmol/kg PO 2 h Post,18%
same,Chelator-Induced U Excretion/Control,[2]; 300 μmol/kg PO 2 h Post,1.8
same,Uranium Excretion,[2]; 300 μmol/kg PO 2 h Post,507 ± 182 µg/kg
same,Uranium Excretion [urine/bite],[2]; 300 μmol/kg PO 2 h Post,[53/47]
same,% of Administered Dose Cleared,[2]; 300 μmol/kg PO Immediate,23%
same,Chelator-Induced U Excretion/Control,[2]; 300 μmol/kg PO Immediate,2.3
same,Uranium Excretion,[2]; 300 μmol/kg PO Immediate,642 ± 101 µg/kg
same,Uranium Excretion [urine/bite],[2]; 300 μmol/kg PO Immediate,[43/57]
same,% of Administered Dose Cleared,[2]; 300 μmol/kg SC Immediate,40%
same,Chelator-Induced U Excretion/Control,[2]; 300 μmol/kg SC Immediate,4.0
same,Uranium Excretion,[2]; 300 μmol/kg SC Immediate,1130 ± 245 µg/kg
same,Uranium Excretion [urine/bite],[2]; 300 μmol/kg SC Immediate,[13/87]
same,% of Administered Dose Cleared,[2]; 600 μmol/kg PO 0.5 h Post,25%
same,Chelator-Induced U Excretion/Control,[2]; 600 μmol/kg PO 0.5 h Post,2.5
same,Uranium Excretion,[2]; 600 μmol/kg PO 0.5 h Post,698 ± 166 µg/kg
same,Uranium Excretion [urine/bite],[2]; 600 μmol/kg PO 0.5 h Post,[24/76]
same,% of Administered Dose Cleared,[2]; 600 μmol/kg PO 1 h Post,26%
same,Chelator-Induced U Excretion/Control,[2]; 600 μmol/kg PO 1 h Post,2.6
same,Uranium Excretion,[2]; 600 μmol/kg PO 1 h Post,723 ± 128 µg/kg
same,Uranium Excretion [urine/bite],[2]; 600 μmol/kg PO 1 h Post,[28/72]
C[C@@]1(C(=O)O)CSC(c2ccc(O)cc2O)=N1 [drawing 13],% of Administered Dose Cleared,[2]; 300 μmol/kg IP Immediate,19%
O=C(O)CN(CCN(CC(=O)O)CC(=O)O)CCN(CC(=O)O)CC(=O)O [drawing 16],% of Administered Dose Cleared,[2]; 300 μmol/kg IP Immediate,17%
same,Chelator-Induced U Excretion/Control,[2]; 300 μmol/kg IP Immediate,1.7
same,Uranium Excretion,[2]; 300 μmol/kg IP Immediate,469 ± 271 µg/kg
same,Uranium Excretion [urine/bite],[2]; 300 μmol/kg IP Immediate,99/1
same,% of Administered Dose Cleared,[2]; 300 μmol/kg PO Immediate,8%
same,Chelator-Induced U Excretion/Control,[2]; 300 μmol/kg PO Immediate,0.8
same,Uranium Excretion,[2]; 300 μmol/kg PO Immediate,235 ± 205 µg/kg
same,Uranium Excretion [urine/bite],[2]; 300 μmol/kg PO Immediate,100/0
same,% of Administered Dose Cleared,[2]; 600 μmol/kg IP Immediate,20%
same,Chelator-Induced U Excretion/Control,[2]; 600 μmol/kg IP Immediate,2.0
same,Uranium Excretion,[2]; 600 μmol/kg IP Immediate,548 ± 147 µg/kg
same,Uranium Excretion [urine/bite],[2]; 600 μmol/kg IP Immediate,100/0
CC1(C)SC(c2ccccc2O)=N[C@@H]1C(=O)O [drawing 20],% of Administered Dose Cleared,[2]; 300 μmol/kg IP 0.5 h Post,7%
same,Chelator-Induced U Excretion/Control,[2]; 300 μmol/kg IP 0.5 h Post,0.7
same,Uranium Excretion,[2]; 300 μmol/kg IP 0.5 h Post,200 ± 47 µg/kg
same,Uranium Excretion [urine/bite],[2]; 300 μmol/kg IP 0.5 h Post,37/63
same,% of Administered Dose Cleared,[2]; 300 μmol/kg IP Immediate,26%
same,Chelator-Induced U Excretion/Control,[2]; 300 μmol/kg IP Immediate,2.6
same,Uranium Excretion,[2]; 300 μmol/kg IP Immediate,743 ± 189 µg/kg
same,Uranium Excretion [urine/bite],[2]; 300 μmol/kg IP Immediate,8/92
COCCOCCOCCOc1ccc(C2=N[C@@](C)(C(=O)O)CS2)c(O)c1 [drawing 21],Uranium Excretion,[2]; 300 μmol/kg IP Immediate,626 ± 123 µg/kg
same,Uranium Excretion [urine/bite],[2]; 300 μmol/kg IP Immediate,35/65
same,response vs control in vivo at 300 µmol/kg,[2]; [3],220%
O=C(O)[C@H]1CSC(c2ccc(O)cc2O)=N1 [drawing 22],relative percentages of the iron excreted in the stool and urine,[1],70/30
same,Iron Clearing Efficiency (%),[1],4.2 ± 1.4%
C[C@]1(C(=O)O)CSC(c2ccc(O)cc2O)=N1 [drawing 23],relative percentages of the iron excreted in the stool and urine,[1],86/14
same,Iron Clearing Efficiency (%),[1],13.4 ± 5%
COc1ccc(C2=N[C@@H](C(=O)O)CS2)c(O)c1 [drawing 24],relative percentages of the iron excreted in the stool and urine,[1],81/19
same,Iron Clearing Efficiency (%),[1],16.2 ± 3.2%
COc1ccc(C2=N[C@@](C)(C(=O)O)CS2)c(O)c1 [drawing 25],relative percentages of the iron excreted in the stool and urine,[1],91/9
same,Iron Clearing Efficiency (%),[1],24.4 ± 10.8%
"desferrioxamine [DFO, reference compound]",ICE,"[1]; subcutaneous administration, iron-loaded Cebus apella primate",5.0±2.6%
same,"uranium clearance, in words","[2]; given IP immediately post uranyl acetate, doses per Table 1",ineffective
